Test results taken from patent US9107914B2, “Beta-carbolines for use in the treatment of hearing loss and vertigo” (AudioCure Pharma GmbH, priority 2009, dated 2015).
“Also recorded” adds a separate entry of the source.

Key:
[1] = parameters: species or system guinea pigs; settings: guinea pig, in vivo
Protocol: Thus, infusion took place into the middle ear and, therefore, outside the cochlea of the inner ear, whereby the tympanic membrane was not damaged. After three hours, 5 μL of perilymph were obtained from the apex, the tip of the cochlea, i.e. the part of the cochlea distanced most from the membrane of the round window, by a previously implanted cannula. The sample was diluted and was separated immediately by high-pressure liquid chromatography (HPLC) without further processing; and the natural fluorescence of β-carboline was determined by a fluorescence detector. The experiment was repeated with a second guinea pig and identical conditions but the sample was obtained after a 10-hour infusion. […] In a second series, 20 μg of 9-Me-BC were applied into the perilymph straight through the membrane of the round window, i.e. intra-cochlear. After three hours and after 20 hours in case of another animal, perilymph was obtained and analysed as described above. Results are depicted in FIG. 6 together with a calibration series. […] A single maximum, which represents 9-Me-BC, can be seen after 7 minutes in the upper chromatogram of FIG. 6. Clearly, no further maximum is to be seen; thus, 9-Me-BC is not degraded.

[2] = tested on: NPY (Neuropeptide Y) in human SH-SY5Y cells; assay: Relative gene expression of NPY (FIG. 4E); type: cell-based; settings: after 14 days of exposure
Protocol: (§1) Next, it was investigated, whether the substances could induce the formation of nerve growth factors in human SH-SY5Y neuroblastoma cell. After 2 and 14 days the cells were harvested and the expression of the target gene and the house keeping gene was determined via reverse transcriptase-PCR.

[3] = tested on: BDNF (brain-derived neurotrophic factor) in human SH-SY5Y cells; assay: Relative gene expression of BDNF (FIG. 4A); type: cell-based; settings: after two days
Protocol: as §1

[4] = tested on: organ of Corti of the cochlea of rats; assay: Real-time RT-PCR of organ cultures of the organ of Corti (Example 14); type: cell-based; settings: 90 μM, 48 hours, rat organ of Corti culture, vs solvent (100%)
Protocol: Initially, organ cultures of the organ of Corti of the cochlea of rats were prepared, which were brought into contact with 9-methyl-β-carboline in a next step. Expression of different neurotrophins was measured as a marker of the effects of 9-methyl-β-carboline on the organs or Corti. For this, RNA was isolated from Corti's tissue, transcribed into cDNA, and the concentrations of the cDNAs of the neurotrophins were determined with help of the real-time RT-PCR method.
Organs of Corti of the cochlea of 40 rats were prepared in several sessions on day 4 post partum. […] Amount and quality of the RNA were determined photometrical. […] Real-time reverse transcriptase polymerase chain reaction (real-time RT-PCR) was performed with the LightCycler System of Roche Applied Science, Mannheim, using the fluorescence resonance energy transfer (FRET) method. […] The gen for hydroxymethylbilane synthase (HMBS) was selected as a so-called housekeeping gene for relative quantification. […] The measured fluorescence of each cycle was analysed by the LightCycler Software. […] Quantification was conducted by the 2^−ΔΔC(t) method of Livak and Schmittgen (Livak K J and Schmittgen T D. Analysis of relative gene expression data using real-time quantitative PCR and the 2(-Delta Delta C(T)) Methods 2001; 25:402-8).

[5] = tested on: transcription factor CREB in SH-SY5Y cells; assay: Dual luciferase method for intracellular cascades (FIG. 5); type: cell-based, human; settings: dose-dependent activating effect, 48 h incubation, three independent experiments
Source text: The effects of β-carbolines on several intracellular cascades were investigated. Of them it is known, that at their respective ends, several transcription factors are formed in the cell nucleus, that in turn activate the transcription of a group of further genes. The dual luciferase method was used. One luciferase served as transfection control, whereas the second is coupled to the appropriate specific binding sequence of the DNA.

[6] = tested on: human SH-SY5Y neuroblastoma cells; assay: Differentiation model / neurite length in human neuroblastoma cells; type: cell-based; settings: 14 days; for neurite length: vs control group, P<0.001; on differentiation / neurite length in comparison to 9-methyl-β-carboline: key: +: marginally better than 9-methyl-β-carboline; ±: equal to 9-methyl-β-carboline; −: marginally worse than 9-methyl-β-carboline
Source text: Human neuroblastoma cells were utilised for this model. These are permanent cells, which are present as an indifferent type in culture. They can be activated to differentiate, i.e. transformation into neuronal cells, by addition of specific substances such as retinoic acid, […] (BDNF) or activator of the enzyme, protein kinase C to the culture medium. We used this cell system to analyse whether beta-carbolines can transform the indifferent cells into the neuronal type. Criteria were: less proliferation (less cells per field of view); smaller cell bodies (transformation from the indifferent type to the neuronal type); cytodendrites (neuritis), which provide connections to neighbouring cells or clusters of neighbouring cells.
Human SH-SY5Y neuroblastoma cells were incubated in culture for 14 days with solvent (Ko) or test substance. A shift of the graph to the right side for a test substance, pointed to an increase of neurite length, when compared to the graph for the control substance. Statistical differences between the treated groups were calculated with the Tukey's Multiple Comparison-Test.
Shown are the cumulative frequency distributions of neurite lengths, determined in at least 20 randomly selected visual fields (each 640.000 μm^2) in three independent experiments. A steep rise pointed to a predominance of short neuritis, wherein for example in control cells, a less steep rise signified a greater number of longer neurites. The horizontal maximum indicated the maximal neurite length of the respective treatment group. […] The effects are dose- and substance-dependent: 1-methyl-β-carboline <6-methoxy-9-methyl-β-carboline <9-methyl-β-carboline <9-fluorethyl-β-carboline).
The effects of the other inventive β-carbolines (compounds A-L and VI-XX) on neurite length were determined, as described above, in human SH-SY5Y neuroblastoma cells after 14 days.

[7] = tested on: inner ear of guinea pigs; assay: Prophylaxis of hearing damages in an animal model, gentamicin and etacrynic acid (Example 30); type: in vivo; settings: infusion to the round window recess, gentamicin and etacrynic acid i.v.
Protocol: A solution containing β-carboline was infused continuously into the recess in front of the membrane of the round window of guinea pigs by a osmotic mini-pump for three days. The following β-carbolines were tested individually in this experiment: 9-methyl-β-carboline, compounds XI, XII, XVIII, XIX as well as C to L.
Then, a standard dose of gentamicin and etacrynic acid was injected intravenously into guinea pigs. Gentamicin and etacrynic acid damage the inner ear. Typically, they are used as toxins to induce deafness in such studies. The infusion was continued for further two days. Then, the electrophysiological activity of the nerve cells of the brain stem, which transmit the impulses of the inner ear, was deduced after acoustic irradiation of the ear with […]. The non-β-carboline-treated ear served as intraindividual control (Prieskorn D M, Miller J M. Technical report: chronic and acute intracochlear infusion in rodents. Hear Res, 2000; 140(1-2): 212-215). Moreover, animals were infused with 9-Me-BC only but not with gentamicin as a further control.
The measured electrophysiological activity of the nerve cells of the acoustic nerve (hearing threshold) served as a measure of the degree of therapeutic effect of the used β-carbolines on the inner ear. As can be learned from Table 3, the used β-carbolines show the increase in electrophysiological activity of the nerve cells of the acoustic nerve. It can be concluded from this that β-carbolines are useful for the treatment of hearing damages, vertigo, and vestibular disorders.

[8] = tested on: cerebellin-1 precursor protein (CBLN) in human SH-SY5Y cells; assay: Relative gene expression of CBLN (FIG. 4B); type: cell-based
Protocol: as §1

SMILES	degradation in perilymph (further chromatographic maxima) [1]	penetration of the membrane of the round window into the perilymph [1]	NPY gene expression, concentration dependence [2]	concentration(s) that stimulated BDNF transcription [3] [µM]	generation of neurotrophins Armetl 1, BDNF, Cbln 1, NGF and NPY (transcription) [4]	dopaminergic proteins (dopamine receptor subtype 1, tyrosine hydroxylase) transcription ([4]; listed as 9-Me-BC)	formation of the transcription factor CREB relative to the level in control cells [5]	neurite length ([6]; 70, 90 or 110 μM)	effect on the inner ear (electrophysiological activity, hearing threshold) in comparison to 9-methyl-β-carboline [7]	CBLN gene expression ([8]; after 14 days of exposure)	CBLN gene expression ([8]; after two days exposure)	neurite length ([6]; 30, 50 or 70 μM)	differentiation / neurite length in comparison to 9-methyl-β-carboline ([6]; SH-SY5Y cells)
Cn1c2ccccc2c2ccncc21 [9-methyl-β-carboline]	not degraded	penetrates the membrane of the round window	lower concentrations were more effective than the higher concentrations	110	activated	activates specifically characteristic proteins of dopaminergic nerve cells; also recorded: increasingly activated	up to ten times	increase in neurite length					
FCCn1c2ccccc2c2ccncc21 [fluorethyl-BC (XIX), 9-(2-fluoroethyl)-9H-β-carboline]			lower concentrations were more effective than the higher concentrations				up to ten times		+	roughly the same stimulation at all investigated concentrations	increased	increase in neurite length	+
